This is an account of results in patent US12084458B2, “Substituted pyridines, pyridazines, and pyrimidines as TYK2 inhibitors” (Sudo Biosciences Limited, priority 2021, dated 2024).

Read-outs that look alike come from different tables or passages of the source. Where only a bound is given, the exact number is not on record here.

As usually defined, the IC50 is the concentration that inhibits the measured activity by half.

Holding throughout (type): cell-based
Experiment [1] deals with HEK-Blue IL-2 reporter cells (IL-2-stimulated STAT5 SEAP reporter). In words: HEK-Blue IL-2 SEAP reporter assay for determining selectivity. To be noted: 4 ng/mL human recombinant IL-2. How it is done: (§1) Example B-3: HEK-Blue™ IL-2 and IFNγ Reporter Assays for Determining Selectivity
(§2) HEK-Blue™ IL-2 and IFNγ reporter cells with a stably-integrated cytokine receptor and STAT5 or STAT1 express STAT-inducible secreted embryonic alkaline phosphatase (SEAP) reporter gene upon cytokine stimulation. These cells were plated in DMEM (Gibco) containing 10% heat-inactivated FBS (Gibco) and 100 U/mL PenStrep (Gibco) at 37° C. under 5% CO2 conditions for 20-22 hours. The cells were then pretreated with serially diluted test compounds for 60 min prior to stimulation with either 4 ng/mL human recombinant IL-2 (Miltenyl Biotech) or 50 ng/mL human recombinant IFNγ (InvivoGen) for 24 hours. SEAP induction was measured using the QUANTI-Blue™ Solution (InvivoGen) according to the manufacturer's instructions.
A general note: In a reporter assay the amount or activity of a reporter protein is the signal.

Experiment [2] has as its system HEK-Blue IFNγ reporter cells (IFNγ-stimulated STAT1 SEAP reporter). The experiment can be described thus: HEK-Blue IFNγ SEAP reporter assay for determining selectivity. Conditions: 50 ng/mL human recombinant IFNγ, read-out: IFN-γ (SEAP selectivity, IC50). How it is done: as §1, §2
For experiment [3], the system named is HEK-Blue IFNα/β cells (IFNα-stimulated STAT1 SEAP reporter; TYK2 JH2). In words: HEK-Blue IFNα/β SEAP reporter assay for profiling TYK2 pseudokinase (JH2) inhibition. To be noted: 1 ng/mL human recombinant IFNα, read-out: IFNα (TYK2 inhibitory activity, IC50). The procedure, abridged:
(§3)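 SEAP read-out (QUANTI-Blue) after cytokine stimulation: IL-23 line given 10 ng/mL human IL-23 for 22-24 h; IFNα/β line given 1 ng/mL human IFNα for 16-18 h. Serially diluted compounds added 60 min before cytokine, to cells plated 20-22 h beforehand.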

The test system of experiment [4] is HEK-Blue IL-23 cells (IL-23-stimulated STAT3 SEAP reporter; TYK2 JH2). In words: HEK-Blue IL-23 SEAP reporter assay for profiling TYK2 pseudokinase (JH2) inhibition. Conditions: 10 ng/mL human recombinant IL-23, SEAP reporter, read-out: IL23 (TYK2 inhibitory activity, IC50). The procedure, abridged: as §3

As to `[2H]C([2H])([2H])NC(=O)c1cnc(NC(=O)NC)cc1Nc1cccc2c1N(C)C([2H])([2H])c1nn(C)nc1-2` [Compound 63, 4-((2,5-dimethyl-4,5-dihydro-2H-[1,2,3]triazolo[4,5-c]quinolin-6-yl-4,4-d2)amino)-N-(methyl-d3)-6-(3-methylureido)nicotinamide], the concentration for half-maximal inhibition (IC50) in experiment [1] is above 1000 nM; in experiment [2] (Homo sapiens, HEK-Blue), above 1000 nM; in experiment [3] (Homo sapiens, HEK-Blue), below 30 nM; in experiment [4], below 30 nM.

For `[2H]C([2H])([2H])NC(=O)c1cnc(NC(=O)NC2CCC2)cc1Nc1cccc2c1N(C)Cc1nn(C)nc1-2` [Compound 64, 6-(3-cyclobutylureido)-4-((2,5-dimethyl-4,5-dihydro-2H-[1,2,3]triazolo[4,5-c]quinolin-6-yl)amino)-N-(methyl-d3)nicotinamide], the IC50 in experiment [1] is above 1000 nM; in experiment [2] (Homo sapiens, HEK-Blue), above 1000 nM; in experiment [3] (Homo sapiens, HEK-Blue), 30 to 300 nM; in experiment [4] it was below 30 nM.

Take `[2H]C([2H])([2H])NC(=O)c1cnc(NC(=O)NC2CC2)cc1Nc1cccc2c1N(C)Cc1nn(C)nc1-2` [Compound 66, 6-(3-cyclopropylureido)-4-((2,5-dimethyl-4,5-dihydro-2H-[1,2,3]triazolo[4,5-c]quinolin-6-yl)amino)-N-(methyl-d3)nicotinamide]: the IC50 is above 1000 nM in experiment [1]; above 1000 nM in experiment [2] (Homo sapiens, HEK-Blue); 30 to 300 nM in experiment [3] (Homo sapiens, HEK-Blue); below 30 nM in experiment [4].

In the case of `[2H]C([2H])([2H])NC(=O)c1nnc(NC(=O)[C@@H]2CC2(F)F)cc1Nc1nccc2c1N(C)Cc1nn(C)nc1-2` [Compound 68, (S)-6-(2,2-difluorocyclopropane-1-carboxamido)-4-((2,5-dimethyl-4,5-dihydro-2H-[1,2,3]triazolo[4,5-c][1,7]naphthyridin-6-yl)amino)-N-(methyl-d3)pyridazine-3-carboxamide], the IC50 is above 1000 nM in experiment [1]; 300 to 1000 nM in experiment [2] (Homo sapiens, HEK-Blue); below 30 nM in experiment [3] (Homo sapiens, HEK-Blue); below 30 nM in experiment [4].

`[2H]C([2H])([2H])NC(=O)c1nnc(NC(=O)[C@H]2CC2(F)F)cc1Nc1nccc2c1N(C)Cc1nn(C)nc1-2` [Compound 69, (R)-6-(2,2-difluorocyclopropane-1-carboxamido)-4-((2,5-dimethyl-4,5-dihydro-2H-[1,2,3]triazolo[4,5-c][1,7]naphthyridin-6-yl)amino)-N-(methyl-d3)pyridazine-3-carboxamide]: the half-inhibitory concentration (IC50) in experiment [1] was above 1000 nM; in experiment [2], above 1000 nM; in experiment [3] (Homo sapiens, HEK-Blue), 30 to 300 nM; in experiment [4] it was below 30 nM.

As for `[2H]C([2H])([2H])NC(=O)c1cnc(NC(=O)[C@@H]2CC2(F)F)cc1Nc1cccc2c1N(C)Cc1nn(C)nc1-2` [Compound 70, (S)-6-(2,2-difluorocyclopropane-1-carboxamido)-4-((2,5-dimethyl-4,5-dihydro-2H-[1,2,3]triazolo[4,5-c]quinolin-6-yl)amino)-N-(methyl-d3)nicotinamide], the IC50 is above 1000 nM in experiment [1]; above 1000 nM in experiment [2] (Homo sapiens, HEK-Blue); 30 to 300 nM in experiment [3] (Homo sapiens, HEK-Blue); below 30 nM in experiment [4].

`[2H]C([2H])([2H])NC(=O)c1nnc(NC(=O)[C@H]2CC2(F)F)cc1Nc1nccc2c1N(C)Cc1nn(C)nc1-2` [Compound 71, (R)-6-(2,2-difluorocyclopropane-1-carboxamido)-4-((2,5-dimethyl-4,5-dihydro-2H-[1,2,3]triazolo[4,5-c][1,7]naphthyridin-6-yl)amino)-N-(methyl-d3)pyridazine-3-carboxamide]: the IC50 in experiment [1] is above 1000 nM; in experiment [2] it was 30 to 300 nM; in experiment [3] it was below 30 nM; in experiment [4], below 30 nM.

For the compound `[2H]C([2H])([2H])NC(=O)c1nnc(NC(=O)C2CC2)cc1Nc1cc(F)cc2c1N(C)Cc1nc(C)nn1-2` [Compound 90, 6-(cyclopropanecarboxamido)-4-((8-fluoro-2,5-dimethyl-4,5-dihydro-[1,2,4]triazolo[1,5-a]quinoxalin-6-yl)amino)-N-(methyl-d3)pyridazine-3-carboxamide], the IC50 in experiment [1] was above 1000 nM; in experiment [2] (Homo sapiens, HEK-Blue), 30 to 300 nM; in experiment [3] (Homo sapiens, HEK-Blue), 30 to 300 nM; in experiment [4], below 30 nM.
